The conditions of this assay: for time to therapeutic effect (time when dP/dt max leveled off): n=1.

Read-outs that look alike come from different tables or passages of the source.

Experimental: Female Sprague Dawley rats (225-300 g) were anaesthetized using isoflurane (1-3% isoflurane in oxygen). Animals were treated with a single dose of sustained release buprenorphine (Bup-SR) at 1 mg/kg subcutaneously to control pain. 2 device of the invention reservoirs (porous or non-porous) were implanted subcutaneously in the rat, the device implantation procedure is shown in FIG. 3A. Briefly, the hair on the back of the rat was removed and surgical sites were prepared with 3 washes of Betadine and 70% ethanol. Devices were sterilized using ethylene oxide prior to implantation. An anterior incision was made at the base of the neck for the and 2 posterior incisions were made 9 cm from the original incision along the back of the rat, 1 cm lateral of the spine. A blunt dissection was made at all incisions and a forceps was used to tunnel subcutaneously from the anterior to the posterior sites. A vascular access button, or self-sealing subcutaneous port (VAB95BS-MRI, VABM2B/22R22, VABR4B/22 Instech Laboratories), was connected to the dorsal end of the catheter of each device of the invention reservoir. The port was placed in position at the base of the neck and the devices tunneled posteriorly into position. The port was secured to the underlying fascia using at least one interrupted suture (5-0 monofilament). Each device of the invention reservoir was secured to the underlying fascia with one suture at either side (7-0 monofilament). The skin was closed with interrupted sutures (5-0 monofilament) and the animal was allowed to recover on a heated pad. 3 mL of warm saline were administered subcutaneously. The following day, one of the two implanted device of the invention reservoirs was actuated at controlled input pressures of 1 PSI (Regime 1) or 2 PSI (Regime 2) at 1 Hz every 12 hours for 14 days (FIG. 3b) and compared to the non-actuated control reservoir for analysis. On day 15, animals were sacrificed by CO2. Following sacrifice, each device and the immediate surrounding tissue were extracted.

Consider `CNC[C@H](O)c1ccc(O)c(O)c1` [epinephrine], for which the “time to therapeutic effect (time when dP/dt max leveled off)” value is, setting by setting: (actuated device, 35 uL of 1 mg/ml) approximately 40 s; (control (non-actuated) device, same animal) approximately 170 s. Moreover, where the note is “first 40 s after delivery, P<0.0001”, the “cyclical average dp/dt max in the first 40 s after delivery, actuation group compared with control” value is “significantly higher”.

The values are drawn from patent US20230094196A1, “AN IMPLANTABLE MEDICAL DEVICE” (NATIONAL UNIVERSITY OF IRELAND, GALWAY, priority 2019, published 2023).
